# Reference: paper PMC6700816, “A novel starch-binding laccase from the wheat pathogen Zymoseptoria tritici highlights the functional diversity of ascomycete laccases” (BMC Biotechnology, 2019)
# Biological target: T1, ZtrLac1A (Zymoseptoria tritici, UniProt F9XCG9)
# T1 construct: gene MYCGRDRAFT_109666; mature protein residues 46-723, native signal peptide removed; catalytic module (556 residues) plus linker plus CBM20; secreted by Pichia pastoris X-33 (pPICZalphaA); N-glycosylated; 79 kDa calculated, 93 kDa on SDS-PAGE; EC 1.10.3.2
# T1 sequence (F9XCG9 46-723): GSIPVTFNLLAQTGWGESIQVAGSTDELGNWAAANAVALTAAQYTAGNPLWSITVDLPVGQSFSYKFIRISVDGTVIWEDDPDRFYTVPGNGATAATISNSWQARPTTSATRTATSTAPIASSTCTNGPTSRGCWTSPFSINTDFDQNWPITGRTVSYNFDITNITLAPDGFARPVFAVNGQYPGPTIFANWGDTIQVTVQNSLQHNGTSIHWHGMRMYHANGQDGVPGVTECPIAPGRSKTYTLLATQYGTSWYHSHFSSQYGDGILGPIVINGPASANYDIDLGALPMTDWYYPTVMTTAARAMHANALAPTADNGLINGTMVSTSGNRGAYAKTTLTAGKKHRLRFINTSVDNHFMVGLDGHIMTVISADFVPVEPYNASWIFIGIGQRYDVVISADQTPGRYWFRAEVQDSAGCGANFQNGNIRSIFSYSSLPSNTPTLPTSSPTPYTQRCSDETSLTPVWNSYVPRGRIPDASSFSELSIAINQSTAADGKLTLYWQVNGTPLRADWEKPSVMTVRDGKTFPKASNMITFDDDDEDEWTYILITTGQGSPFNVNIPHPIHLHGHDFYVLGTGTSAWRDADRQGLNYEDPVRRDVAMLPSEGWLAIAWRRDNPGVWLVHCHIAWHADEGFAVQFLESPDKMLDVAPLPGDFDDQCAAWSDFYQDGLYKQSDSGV
# Experiment: isothermal titration calorimetry, one-site model
# Conditions: 20 mM sodium acetate, pH 5.5, 25 °C; starch mimic, CBM20 starch-binding module, not the laccase active site
# From the text: isothermal titration calorimetry, one-site model on ZtrLac1A | ZtrLac1A binds to β-CD with an association constant of Ka
smiles,measurement,value
"OC[C@H]1O[C@@H]2O[C@H]3[C@H](O)[C@@H](O)[C@@H](O[C@H]4[C@H](O)[C@@H](O)[C@@H](O[C@H]5[C@H](O)[C@@H](O)[C@@H](O[C@H]6[C@H](O)[C@@H](O)[C@@H](O[C@H]7[C@H](O)[C@@H](O)[C@@H](O[C@H]8[C@H](O)[C@@H](O)[C@@H](O[C@H]1[C@H](O)[C@H]2O)O[C@@H]8CO)O[C@@H]7CO)O[C@@H]6CO)O[C@@H]5CO)O[C@@H]4CO)O[C@@H]3CO [β-CD, β-cyclodextrin]",Kd,32.6 ± 2.4 µM
